{"source": "paper PMC10552397", "about": "(Cell Communication and Signaling : CCS, 2023)", "tested_on": "HeLa GRASP55 KO cells", "test": "Secretome analysis by data-independent mass spectrometry", "assay_type": "cell-based", "settings": "100 nM, 24 h, serum-free, not apparent in wt", "method": "For the preparation of secretomes, 2*10^5 HeLa wt or HeLa GRASP55 KO cells per well were seeded in a 6-well plate (n = 5 replicates for 4 different groups). […] After incubation, the medium was collected, centrifuged at 1,000 × g and 4 °C for 10 min and filtered through a 0.2 µm Acrodisc syringe filter (VWR, Radnor, PA, USA, #514–4131). After adding protease inhibitor cocktail (Roche, Basel, Switzerland, #5,892,791,001), the samples were snap frozen in liquid nitrogen and stored at -80 °C. Proteins were prepared for mass spectrometric analysis by a modified single-pot, solid-phase-enhance sample preparation (SP3) method. […] Finally, the sample was reconstituted in 0.1% trifluoroacetic acid and half of the sample analyzed by mass spectrometry. […]\nOnly proteins identified with at least two different peptides and 4 valid intensity values (MaxLFQ) in at least one experimental group were considered for further analysis. […] Annotation dependent significant abundance changes of protein groups were analysed using 1D and 2D annotation enrichment and respective differences visualized with split-violin plots with OriginPro 2020b.", "data": [{"compound": "CCCCCC1=C/C(=C/c2[nH]c(-c3ccc[nH]3)cc2OC)N=C1C", "note": "[Prodigiosin, prodigiosin]", "values": [{"measurement": "abundance of signal peptide (SP) proteins in the secretome", "result": "higher abundances"}]}]}
